Results reported in PubChem BioAssay AID2060888 (Molecular Pharmacology Branch, DTP, NCI, 2025).

Tested on: 695427-040-R-J1-PDC complex spheroid viability
Assay: Anticancer human tumor 695427-040-R-J1-PDC patient-derived colon adenocarcinoma cell line growth inhibition [RAS]
Settings: for IC50: curve of first compound; for viability, T/C: stronger effect = lower value
How it was run: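 Multi-cell-type spheroids: tumor cells plus HUVEC endothelial cells and mesenchymal stem cells. RAS-pathway inhibitors were combined with targeted agents, each dosed in half-log steps down from clinical Cmax, or from 10 microM when Cmax was unknown.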

[1] = second compound 0.000949 µM, first compound 0.0316 µM
[2] = second compound 0.000949 µM, first compound 0.1 µM
[3] = second compound 0.000949 µM, first compound 0.316 µM
[4] = second compound 0.000949 µM, first compound 1 µM
[5] = second compound 0.000949 µM, first compound 3.16 µM
[6] = second compound 0.000949 µM, first compound 10 µM
[7] = second compound 0.003 µM, first compound 0.0316 µM
[8] = second compound 0.003 µM, first compound 0.1 µM
[9] = second compound 0.003 µM, first compound 0.316 µM
[10] = second compound 0.003 µM, first compound 1 µM
[11] = second compound 0.003 µM, first compound 3.16 µM
[12] = second compound 0.003 µM, first compound 10 µM
[13] = second compound 0.00949 µM, first compound 0.0316 µM
[14] = second compound 0.00949 µM, first compound 0.1 µM
[15] = second compound 0.00949 µM, first compound 0.316 µM
[16] = second compound 0.00949 µM, first compound 1 µM
[17] = second compound 0.00949 µM, first compound 3.16 µM
[18] = second compound 0.00949 µM, first compound 10 µM
[19] = second compound 0.03 µM, first compound 0.0316 µM
[20] = second compound 0.03 µM, first compound 0.1 µM
[21] = second compound 0.03 µM, first compound 0.316 µM
[22] = second compound 0.03 µM, first compound 1 µM
[23] = second compound 0.03 µM, first compound 3.16 µM
[24] = second compound 0.03 µM, first compound 10 µM
[25] = second compound 0.0949 µM, first compound 0.0316 µM
[26] = second compound 0.0949 µM, first compound 0.1 µM
[27] = second compound 0.0949 µM, first compound 0.316 µM
[28] = second compound 0.0949 µM, first compound 1 µM
[29] = second compound 0.0949 µM, first compound 3.16 µM
[30] = second compound 0.0949 µM, first compound 10 µM
[31] = second compound 0.3 µM, first compound 0.0316 µM
[32] = second compound 0.3 µM, first compound 0.1 µM
[33] = second compound 0.3 µM, first compound 0.316 µM
[34] = second compound 0.3 µM, first compound 1 µM
[35] = second compound 0.3 µM, first compound 3.16 µM
[36] = second compound 0.3 µM, first compound 10 µM
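Also: viability read after seven days of drug exposure.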
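For viability, T/C in this document: 100% = DMSO vehicle control viability.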

CC(C)NCC(C(=O)N1CCN(c2ncnc3c2C(C)CC3O)CC1)c1ccc(Cl)cc1 (stereo unspecified) + CCn1c(-c2cc(N3CCN(C)CC3)cnc2C(C)OC)c2c3cc(ccc31)-c1csc(n1)CC(NC(=O)C1CC1C)C(=O)N1CCCC(N1)C(=O)OCC(C)(C)C2
IC50 (second compound 0.000949 µM): > 10000 nM | IC50 (second compound 0.003 µM): > 10000 nM | IC50 (second compound 0.00949 µM): > 10000 nM | IC50 (second compound 0.03 µM): 4050 nM | IC50 (second compound 0.0949 µM): < 31.6 nM | IC50 (second compound 0.3 µM): < 31.6 nM | viability, T/C [1]: 84.9% | viability, T/C [2]: 98.1% | viability, T/C [3]: 78.2% | viability, T/C [4]: 89.4% | viability, T/C [5]: 60.6% | viability, T/C [6]: 54.8% | viability, T/C [7]: 107% | viability, T/C [8]: 85.5% | viability, T/C [9]: 96.5% | viability, T/C [10]: 73% | viability, T/C [11]: 85.6% | viability, T/C [12]: 59.2% | viability, T/C [13]: 74.4% | viability, T/C [14]: 81.3% | viability, T/C [15]: 65% | viability, T/C [16]: 59.1% | viability, T/C [17]: 85.3% | viability, T/C [18]: 54.1% | viability, T/C [19]: 51.4% | viability, T/C [20]: 54.6% | viability, T/C [21]: 51.4% | viability, T/C [22]: 52.5% | viability, T/C [23]: 60.1% | viability, T/C [24]: 35.1% | viability, T/C [25]: 36.4% | viability, T/C [26]: 45.1% | viability, T/C [27]: 39.2% | viability, T/C [28]: 36% | viability, T/C [29]: 41.9% | viability, T/C [30]: 24.6% | viability, T/C [31]: 36.9% | viability, T/C [32]: 28.7% | viability, T/C [33]: 35.5% | viability, T/C [34]: 30.8% | viability, T/C [35]: 27.9% | viability, T/C [36]: 15.5%

CC(C)n1nc(-c2ccc3oc(N)nc3c2)c2c(N)ncnc21 + CCn1c(-c2cc(N3CCN(C)CC3)cnc2C(C)OC)c2c3cc(ccc31)-c1csc(n1)CC(NC(=O)C1CC1C)C(=O)N1CCCC(N1)C(=O)OCC(C)(C)C2
IC50 (second compound 0.000949 µM): 71.9 nM | IC50 (second compound 0.003 µM): > 100 nM | IC50 (second compound 0.00949 µM): 34.2 nM | IC50 (second compound 0.03 µM): 4.03 nM | IC50 (second compound 0.0949 µM): < 0.316 nM | IC50 (second compound 0.3 µM): < 0.316 nM | viability, T/C (second compound 0.000949 µM, first compound 0.000316 µM): 100% | viability, T/C (second compound 0.000949 µM, first compound 0.001 µM): 86.4% | viability, T/C (second compound 0.000949 µM, first compound 0.00316 µM): 80.3% | viability, T/C (second compound 0.000949 µM, first compound 0.01 µM): 81.2% | viability, T/C [1]: 68.6% | viability, T/C [2]: 42% | viability, T/C (second compound 0.003 µM, first compound 0.000316 µM): 98.5% | viability, T/C (second compound 0.003 µM, first compound 0.001 µM): 84.8% | viability, T/C (second compound 0.003 µM, first compound 0.00316 µM): 71.8% | viability, T/C (second compound 0.003 µM, first compound 0.01 µM): 68.1% | viability, T/C [7]: 66.5% | viability, T/C [8]: 51.1% | viability, T/C (second compound 0.00949 µM, first compound 0.000316 µM): 93.3% | viability, T/C (second compound 0.00949 µM, first compound 0.001 µM): 68.5% | viability, T/C (second compound 0.00949 µM, first compound 0.00316 µM): 70% | viability, T/C (second compound 0.00949 µM, first compound 0.01 µM): 59.1% | viability, T/C [13]: 46.4% | viability, T/C [14]: 46.8% | viability, T/C (second compound 0.03 µM, first compound 0.000316 µM): 74.3% | viability, T/C (second compound 0.03 µM, first compound 0.001 µM): 45.1% | viability, T/C (second compound 0.03 µM, first compound 0.00316 µM): 55.8% | viability, T/C (second compound 0.03 µM, first compound 0.01 µM): 48.6% | viability, T/C [19]: 39.2% | viability, T/C [20]: 28.7% | viability, T/C (second compound 0.0949 µM, first compound 0.000316 µM): 47.6% | viability, T/C (second compound 0.0949 µM, first compound 0.001 µM): 38.6% | viability, T/C (second compound 0.0949 µM, first compound 0.00316 µM): 35.4% | viability, T/C (second compound 0.0949 µM, first compound 0.01 µM): 32.8% | viability, T/C [25]: 30% | viability, T/C [26]: 21.3% | viability, T/C (second compound 0.3 µM, first compound 0.000316 µM): 41% | viability, T/C (second compound 0.3 µM, first compound 0.001 µM): 34.8% | viability, T/C (second compound 0.3 µM, first compound 0.00316 µM): 27.3% | viability, T/C (second compound 0.3 µM, first compound 0.01 µM): 28.2% | viability, T/C [31]: 22.6% | viability, T/C [32]: 15.7%

C[C@@H](NC(=O)c1ncnc(N)c1Cl)c1ncc(C(=O)Nc2cc(C(F)(F)F)c(Cl)cn2)s1 + CCn1c(-c2cc(N3CCN(C)CC3)cnc2C(C)OC)c2c3cc(ccc31)-c1csc(n1)CC(NC(=O)C1CC1C)C(=O)N1CCCC(N1)C(=O)OCC(C)(C)C2
IC50 (second compound 0.000949 µM): > 10000 nM | IC50 (second compound 0.003 µM): > 10000 nM | IC50 (second compound 0.00949 µM): > 10000 nM | IC50 (second compound 0.03 µM): > 10000 nM | IC50 (second compound 0.0949 µM): > 10000 nM | IC50 (second compound 0.3 µM): < 31.6 nM | viability, T/C [1]: 77.4% | viability, T/C [2]: 94% | viability, T/C [3]: 84.1% | viability, T/C [4]: 87.6% | viability, T/C [5]: 108% | viability, T/C [6]: 78.5% | viability, T/C [7]: 117% | viability, T/C [8]: 91% | viability, T/C [9]: 99.6% | viability, T/C [10]: 85.9% | viability, T/C [11]: 117% | viability, T/C [12]: 70.1% | viability, T/C [13]: 95.3% | viability, T/C [14]: 83.4% | viability, T/C [15]: 83.6% | viability, T/C [16]: 84.4% | viability, T/C [17]: 85.6% | viability, T/C [18]: 53.1% | viability, T/C [19]: 65.8% | viability, T/C [20]: 71% | viability, T/C [21]: 76.3% | viability, T/C [22]: 72.4% | viability, T/C [23]: 81.3% | viability, T/C [24]: 55.6% | viability, T/C [25]: 56.2% | viability, T/C [26]: 58.2% | viability, T/C [27]: 58.4% | viability, T/C [28]: 48.7% | viability, T/C [29]: 72.4% | viability, T/C [30]: 51.2% | viability, T/C [31]: 36.4% | viability, T/C [32]: 44.2% | viability, T/C [33]: 44.4% | viability, T/C [34]: 45.4% | viability, T/C [35]: 50.1% | viability, T/C [36]: 33%
